The source of these data is PMC7615751, “Anionic liposome formulation for oral delivery of thuricin CD, a potential antimicrobial peptide therapeutic” (International journal of pharmaceutics, 2024).

For data set [1] the following is noted: FaSSIF vs PBS; ref Ryan et al., 2021; cited from earlier work. An excerpt:
The pH in FaSSIF is 6.5, and the pI of Trn α and Trn β is close to 4, so the thuricin CD peptides should both be slightly negatively charged in this solution (ExPASy, 2022), helping their dissolution in this medium. Also, it has been previously reported that lacticin 3147, a two peptide bacteriocin with similar ...

For data set [2], the system named is L. monocytogenes ATCC 1916. The data set is described as follows: Bioactivity of dissolved thuricin CD (MIC50, growth curves at OD 590 nm). In kind it is cell-based. The conditions noted are these: 24 h, 37 °C.
Method: For this study, L. monocytogenes was used as an indicator strain. The minimum inhibitory concentration MIC50 was determined based on the protocol previously described by Mathur et al. ([Mathur, et al., 2017]). MIC50 was established as the concentration of peptides that inhibited 50 % of growth of L. monocytogenes ATCC 1916 ([Rea, 2010]).
Briefly, 1 mg/mL stock solutions of freeze-dried Trnα and Trnβ resuspended in 70 % IPA 0.1 % TFA in water were diluted in sterile PBS to a final concentration of 100 μg/mL (dissolved thuricin). For all the experiments in this, and the following sections, a 1:1 M ratio of Trn α: Trn β was used. The corresponding volumes of each peptide to reach 250 nM of each peptide (0.69 μg/mL Trn α + 0.72 μg/mL Trn β), 500 nM of each peptide (1.38 μg/mL Trn α + 1.43 μg/mL Trn β), 1 μM of each peptide (2.76 μg/mL Trn α + 2.86 μg/mL Trn β), and 2 μM of each peptide (5.53 μg/mL Trn α + 5.72 μg/mL Trn β) in the final well volume were added in triplicate to a 96 well plate. […] L. monocytogenes ATCC 1916 was grown in BHI broth shaking overnight at 37 °C. 150 μL of 10^5 CFU/mL bacterial culture was added to the wells with sample. Blanks were set up in triplicate with only PBS and media as well as a control containing buffer and bacterial culture. The plate was incubated in a Biotek ELx808 Ultra microplate reader at 37 °C for 24 h. Readings were taken every 30 min at 590 nm. […]
The target of data set [3] is T1, pepsin (Sus scrofa, UniProt P00791).
T1 construct: purchased Sigma Aldrich Ireland Ltd
T1 sequence (P00791 60-385): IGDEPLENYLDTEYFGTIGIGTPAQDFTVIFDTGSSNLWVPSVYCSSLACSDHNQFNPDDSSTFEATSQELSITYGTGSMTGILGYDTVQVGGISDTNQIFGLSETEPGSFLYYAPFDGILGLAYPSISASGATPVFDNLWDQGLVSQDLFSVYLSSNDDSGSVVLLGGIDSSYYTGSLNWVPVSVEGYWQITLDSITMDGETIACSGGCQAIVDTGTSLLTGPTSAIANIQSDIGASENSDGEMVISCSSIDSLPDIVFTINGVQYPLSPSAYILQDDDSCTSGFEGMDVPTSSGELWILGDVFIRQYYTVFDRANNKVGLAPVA
The data set is described as follows: Enzymatic degradation of dissolved thuricin CD by pepsin (residual antibacterial activity). In kind it is in vitro ADME. The settings on record: 5.6 μg/mL Trn α + 5.8 μg/mL Trn β. How it is done: Trn α and Trn β stock solutions (1 mg/mL in 70 % IPA 0.1 % TFA in water) were filter sterilized and diluted to a final concentration of 100 μg/mL in sterile PBS. Pepsin activity was evaluated beforehand according to the haemoglobin assay, based on the principle that haemoglobin in water produces tyrosine peptides soluble in trichloroacetic acid (TCA) when pepsin is applied ([Brodkorb, 2019]). The activity units (AU or μmol/min), defined as the quantity of the enzyme that converts one micromole of substrate per minute, were determined before this test. Pepsin was suspended in cold 0.01 M HCl pH 2 reaching 824 activity units per mL. Trn α and Trn β were added to the same well of a 96-well plate in triplicate to give a final concentration of 5.6 μg/mL and 5.8 μg/mL respectively. […] 25 μL of pepsin solution was also added to each of the wells. This gave a final pepsin concentration/activity of 1.2 mg/mL or 98.8 AU/mL, which is the approximate concentration of enzyme present in the human stomach ([Liu, 2015]). Thuricin alone and pepsin alone were included as control samples with the bacterial culture. Blanks were set up in triplicate with PBS, 0.01 M HCl, and media only (BHI). […] The plate was incubated in a BioTek ELx808 Ultra microplate reader at 37 °C for 24 h at a wavelength of 590 nm. Readings were taken every 30 min for 24 h with the plate shaken mildly before each reading.

A further data set addresses T2, trypsin (Sus scrofa, UniProt P00761).
T2 construct: purchased Sigma Aldrich Ireland Ltd
The data set is described as follows: Enzymatic degradation of dissolved thuricin CD by trypsin (residual antibacterial activity). In kind it is in vitro ADME. The conditions noted are these: 4.4 μg/mL Trn α + 4.4 μg/mL Trn β; 19.3 μg/ml trypsin; 3 h, 37 °C; then growth curve 24 h, OD 590 nm; triplicate. How it is done: (§1) Trn α and Trn β stock solutions (1 mg/mL in 70 % IPA 0.1 % TFA in water) were filter sterilized and diluted to a final concentration of 100 μg/mL in sterile PBS. Pepsin activity was evaluated beforehand according to the haemoglobin assay, based on the principle that haemoglobin in water produces tyrosine peptides soluble in trichloroacetic acid (TCA) when pepsin is applied ([Brodkorb, 2019]). The activity units (AU or μmol/min), defined as the quantity of the enzyme that converts one micromole of substrate per minute, were determined before this test. Pepsin was suspended in cold 0.01 M HCl pH 2 reaching 824 activity units per mL. Trn α and Trn β were added to the same well of a 96-well plate in triplicate to give a final concentration of 5.6 μg/mL and 5.8 μg/mL respectively. […] The plate was incubated in a BioTek ELx808 Ultra microplate reader at 37 °C for 24 h at a wavelength of 590 nm. Readings were taken every 30 min for 24 h with the plate shaken mildly before each reading.
(§2) A similar procedure was followed for trypsin and chymotrypsin, but different concentrations were used, and incubation time was 3 h. […] Trypsin activity units were determined by a previously established assay based on the principle that p-toluene-sulfonyl-l-arginine methyl ester (TAME) in water produces p-toluene-sulfonyl-L-arginine plus methanol when trypsin is applied ([Brodkorb, 2019]). […]

In a further data set the target is T3, α-chymotrypsin (Bos taurus, UniProt P00766).
T3 construct: purchased Sigma Aldrich Ireland Ltd
The data set is described as follows: Enzymatic degradation of dissolved thuricin CD by α-chymotrypsin (residual antibacterial activity). In kind it is in vitro ADME. The settings on record: 4.4 μg/mL Trn α + 4.4 μg/mL Trn β; 19.3 μg/ml α-chymotrypsin; 3 h, 37 °C; then growth curve 24 h, OD 590 nm; triplicate. As to the method:
as §1, §2

For data set [4], the system named is L. monocytogenes ATCC 1916. The data set is described as follows: Solution behaviour / activity of free thuricin CD in FaSSIF without enzymes. The conditions noted are these: free thuricin suspended from solid in FaSSIF pH 6.5, 37 °C, 0.2 μm filtered, growth curve 24 h, triplicate. It counts as cell-based. As to the method:
(§3) Fasted state simulated intestinal fluid (FaSSIF) and fasted state simulated gastric fluid (FaSSGF) were prepared using Biorelevant FaS-SIF/FaSSGF powder following the manufacturer’s instructions. Briefly, for FaSSIF, 0.21 g NaOH, 1.72 g sodium phosphate monobasic and 3.10 g NaCl were diluted in 400 mL distilled water. The solution was stirred until dissolved. The pH was then adjusted to 6.5 with 0.1 M HCl. 1.12 g FaSSIF powder was added and finally, the volume was topped up to 500 mL. For FaSSGF, 2 g NaCl was dissolved in 900 mL distilled water. The pH was adjusted to 1.6 with 1 M HCl.
Trn α and Trn β solutions at concentrations of 0.5 mg/mL in FaSSGF/FaSSIF were suspended directly from lyophilised powder (free thuricin). Further dilutions were carried out to reach concentrations of 2 times, 5 times and 10 times the MIC50 in the final volume to be used for the experiment. The suspensions were distributed in different microtubes and incubated at 37 °C, 300 rpm in an incubator for 0.5 h. An aliquot of each concentration was taken, and filter sterilized with a 0.2 μm PES filter. 50 μL of each sterile solution was transferred to a 96-well microtiter plate in triplicate. Each well was filled with 150 μL of a L. monocytogenes culture at an OD of 0.1. A control was set with 50 μL of FaSSGF/FaSSIF and 150 μL culture. The plate was incubated in a Biotek ELx808 Ultra microplate reader at 37 °C for 24 h at a wavelength of 590 nm. Readings were taken every 30 min for 24 h with the plate shaken mildly before each one. The readings collected from those samples were considered as time 0. In the meantime, the microtubes were put back in the incubator with reduced shaking. After 1, 4 and 24 h a new aliquot was taken, and the same protocol was followed for activity testing.

The subject of data set [5] is L. monocytogenes ATCC 1916. Kind of data set: Solution behaviour / activity of free thuricin CD in FaSSGF without enzymes. In kind it is cell-based. As to the method: as §3
Trn α and Trn β solutions at concentrations of 0.5 mg/mL in FaSSGF/FaSSIF were suspended directly from lyophilised powder (free thuricin). Further dilutions were carried out to reach concentrations of 2 times, 5 times and 10 times the MIC50 in the final volume to be used for the experiment. The suspensions were distributed in different microtubes and incubated at 37 °C, 300 rpm in an incubator for 0.5 h. An aliquot of each concentration was taken, and filter sterilized with a 0.2 μm PES filter. […] The plate was incubated in a Biotek ELx808 Ultra microplate reader at 37 °C for 24 h at a wavelength of 590 nm. Readings were taken every 30 min for 24 h with the plate shaken mildly before each one. The readings collected from those samples were considered as time 0. […]

Data set [6] has as its system L. monocytogenes ATCC 1916. Kind of data set: Biological activity of Trn αβ loaded liposomes vs free thuricin CD in acetate buffer. It counts as cell-based. The conditions noted are these: 1.25 and 2.50 μg/mL of each peptide, 37 °C, 24 h, OD 590 nm, triplicate. How it is done:
The activity of Trn αβ liposomes was evaluated following the methodology previously described for thuricin CD. Briefly, the liposome suspension was filtered with a 0.45 μm PES sterile filter. Different volumes of the sterile liposome suspension were added to reach final concentrations of Trn α and Trn β of 1.25 and 2.50 μg/mL in each well. Samples were tested in triplicate. […] 150 μL of 10^5 CFU/mL L. monocytogenes ATCC 1916 culture was added to the wells with sample. Blanks were set up in triplicate with only media, the corresponding blank liposome suspension volume, and PBS. Controls contained inoculated media and PBS. The plate was incubated in a BioTek ELx808 Ultra microplate reader at 37 °C for 24 h. Readings were taken every 30 min at 590 nm. The same procedure was followed for free thuricin (freeze dried thuricin powder directly suspended in acetate buffer).

The target in data set [7] is T1, pepsin. Kind of data set: Biological activity after incubation in FaSSGF with pepsin. It counts as in vitro ADME. The settings on record: dissolved Trn α and β, 1.2 mg/mL pepsin in FaSSGF, 30 min, 37 °C; double the MIC50; L. monocytogenes growth curve 24 h. How it is done: The activity of αβ liposome suspension and dissolved αβ peptides after exposing both to FaSSGF with pepsin and FaSSIF without pancreatin was analysed. No pancreatin was added to FaSSIF because it inhibitied L. monocytogenes growth itself. Trn αβ loaded liposome suspension or dissolved thuricin (thuricin powder in 70 % IPA 0.1 % TFA in water and further diluted in acetate buffer) + pepsin in FaSSGF were prepared as described in the previous section. Control samples with acetate buffer + pepsin in FaSSGF were also prepared.
After 30 min incubation, pepsin was deactivated by heating the samples at 70 °C for 10 min. The volume necessary to reach a concentration of double the MIC50 of thuricin peptides was added to a 96-well plate. The wells were topped to 50 μL with PBS. 150 μL of 10^5 CFU/mL bacterial cell culture (L. monocytogenes) was added to each well. Blanks were set with media and control samples. The plate was incubated in a BioTek ELx808 Ultra microplate reader at 37 °C for 24 h at a wavelength of 590 nm. Readings were taken every 30 min for 24 h with the plate shaken mildly before each reading.

For a further data set, the system named is Caco-2 cells. The data set is described as follows: Presto blue cytotoxicity assay. The conditions noted are these: 5 μg/mL Trn α + 5 μg/mL Trn β, 24 h, 37 °C, absorbance 570 nm. It counts as cell-based. As to the method:
The biocompatibility of Trn αβ liposome suspension and dissolved thuricin CD with intestinal epithelial cells were tested. Caco-2 cells were grown in high glucose Dulbecco’s modified Eagle’s medium supplemented with 10 % fetal bovine serum, 1 % L-Glutamine, 1 % pen-strep, and 1 % non-essential amino acids at 37 °C, with 5 % CO2 and 95 % relative humidity. Approximately 10,000 cells were seeded per well in a 96-well plate. The plate was incubated overnight to ensure the cells adhered to the wells. The media was removed from the wells and filter-sterilized dissolved thuricin CD and Trn αβ liposome suspension samples at a final concentration of 5 μg/mL of each peptide were added 1:1 (v/v) with fresh media. Control wells were included by adding blank liposomes and just media to the cells. The plate was incubated for 24 h at 37 °C, with 5 % CO2 and 95 % relative humidity. The media was removed from the wells, 10 μL Presto blue +90 μL fresh media was added to each well and left incubating for 60 min. Finally, the absorbances of the solutions in the plate were read at 570 nm and plotted for all samples.

For data set [8] the following is noted: cell-free supernatants; ref Rea, 2010; cited from earlier work. An excerpt:
However, because of their peptide nature, bacteriocins are susceptible to degradation, aggregation, and precipitation in the body, and can show low solubility and poor permeability ([Flynn et al., 2021]). Previous reports have evaluated the heat and pH stability of thuricin CD cell-free supernatants. […] Activity was also maintained in a pH range of 2 to 9 ([Rea, 2010]). Neither quantitative nor qualitative data on the solubility of thuricin in biorel ...

T2 sequence (P00761 9-231): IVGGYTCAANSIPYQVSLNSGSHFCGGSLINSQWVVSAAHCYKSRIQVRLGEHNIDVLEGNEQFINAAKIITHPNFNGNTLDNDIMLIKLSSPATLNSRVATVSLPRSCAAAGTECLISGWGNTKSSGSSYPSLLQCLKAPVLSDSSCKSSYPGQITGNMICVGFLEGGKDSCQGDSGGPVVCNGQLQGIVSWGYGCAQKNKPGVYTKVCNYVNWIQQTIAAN

For lacticin 3147, in data set [1], the “solubility in FaSSIF” value is on record as “improved solubility in FaSSIF compared to PBS”.
On to thuricin CD, for which, in [2] (0.25 μM of each peptide), the “effect on bacterial growth” value was “could not significantly inhibit bacterial growth”. Also, in data set [2] (0.5 μM of each peptide, 1:1 M ratio), the “inhibition of bacterial growth” value was “approximately 50%”. Further, the “activity against L. monocytogenes ATCC 1916 after exposure to pepsin” value at pepsin [3] (pepsin 1.2 mg/mL (98.8 AU/mL), 0.01 M HCl pH 2/PBS, 1.5 h, 37 °C, 70 rpm, then growth curve 24 h, OD 590 nm, triplicate) is given as “deactivated”. For the same substance, at pepsin [3] (positive control without pepsin, incubated 1.5 h at 37 °C before culture, growth curve 24 h), the “time for which bacterial growth was inhibited, thuricin alone (no enzyme)” value is recorded as roughly 17 h. Besides, the “activity against L. monocytogenes ATCC 1916 after exposure to trypsin” value on trypsin is reported as “retained its activity”. For the same substance, the “activity against L. monocytogenes ATCC 1916 after exposure to α-chymotrypsin” value at α-chymotrypsin was “growth comparable to the control”. Moreover, in data set [4] (all time points 0–24 h), the “activity after addition of lyophilised powder to FaSSIF, five times the MIC50” value is “activity is observed” and the “activity after addition of lyophilised powder to FaSSIF, ten times the MIC50” value is “activity is observed”. The “activity after addition of lyophilised powder to FaSSIF, double the MIC50” value in data set [4] (time points 0, 1, 4, 24 h) is recorded as “no activity is observed”. In addition, the “activity of peptides pre-dissolved in 70 % IPA 0.1 % TFA in water and diluted in FaSSGF” value in [5] (2, 5 and 10 times the MIC50, 1:1 molar ratio, FaSSGF pH 1.6 (Figure S3)) is recorded as “retained thuricin CD activity”. In addition, in data set [5] (free thuricin suspended from solid in FaSSGF pH 1.6, 37 °C, x2, x5, x10 MIC50, 0, 1, 4, 24 h, 0.2 μm filtered, growth curve 24 h, triplicate), the “activity after addition of lyophilised powder to FaSSGF” value is “no activity was detected”. The “activity of lyophilised peptides directly suspended in acetate buffer” value in [6] is on record as “do not demonstrate any activity”. Further, the “activity after exposure to pepsin in FaSSGF” value on pepsin [7] is “completely lost activity”. In addition, in the data set on Caco-2 cells, the “cytotoxicity: absorbance compared to the control group of living cells” value is on record as “none of the samples exhibited any significant difference in absorbance”. Moreover, in data set [8], the “heat stability at 85 °C” value is reported as “stable”, the “heat stability at 90 °C” value is recorded as “reducing its activity” and the “heat stability at 100 °C” value was “complete activity loss”.
